Test system: Dictyostelium discoideum AX2 strain cells
Assay: Cell penetration into Dictyostelium amoeba cells, fluorescence microscopy of fixed cells
Assay type: cell-based
Conditions: 10 µM, 60 min in buffer, washed 3 times, fixed with Fluorsave, green fluorescent filter; GFP proteins denatured, non-fluorescent when added
Description: Dictyostelium discoideum AX2 strain cells were grown on Klebsiella aerogenes plates. For experimentation, cells at the growth zone were collected and washed 5 times with 10 mM potassium phosphate buffer, pH 7.2 and seeded in slide chambers at a density of 10^5 cells/mL. Cells were incubated with FITC-labelled Cupid, Cupid-GFP or H-GFP at the doses indicated for 60 min, washed 3 times in buffer and fixed in situ using Fluorsave (Calbiochem, UK) under a coverslip. Cell microscopy was performed on an upright fluorescence microscope (Olympus BX61) with the green fluorescent filter set, coupled with a digital camera.

Substance	cells become fluorescent (cell-penetrating capability)
fluorescein-labelled BSA: fluorescein-labelled BSA control (data not shown)	did not
RRVQIWFQNKRAKVKR [F-Cupid]	caused the cells to become fluorescent

Reference: article PMC7426420, “Cupid, a cell permeable peptide derived from amoeba, capable of delivering GFP into a diverse range of species” (Scientific Reports, 2020)
